From BindingDB's records for doi:10.7270/Q2D50KGC (Burnham Center For Chemical Genomics, 2011)

biological target: T1, Endoribonuclease toxin MazF (Escherichia coli (strain K12), UniProt P0AE70); experiment: MazF endoribonuclease activators, SAR follow-up, biochemical, fluorescence, single-stranded RNA substrate (AID 588603)
T1 sequence (P0AE70 whole entry): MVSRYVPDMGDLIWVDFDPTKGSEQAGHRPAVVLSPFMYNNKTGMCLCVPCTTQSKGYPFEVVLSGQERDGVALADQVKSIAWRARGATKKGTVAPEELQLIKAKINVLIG

SMILES	EC50 [µM]
C=CCOc1cccc(C2C(C(=O)c3ccc(C)o3)C(=O)C(=O)N2c2nccs2)c1 (stereo not drawn) [3-(5-methylfuran-2-yl)carbonyl-4-oxidanyl-2-(3-prop-2-enoxyphenyl)-1-(1,3-thiazol-2-yl)-2H-pyrrol-5-one]	22.3
N#Cc1ccc(-n2c(O)c3[nH][nH]c(C(=O)c4ccc5ccccc5n4)c-3c2=O)cc1 [4-[(3aS,6aS)-4,6-dioxo-3-[oxo(2-quinolinyl)methyl]-3a,6a-dihydro-1H-pyrrolo[3,4-c]pyrazol-5-yl]benzonitrile]	7.74
O=C(c1ccc2ccccc2n1)c1[nH][nH]c2c(O)n(-c3cccc(F)c3)c(=O)c1-2 [(3aS,6aS)-5-(3-fluorophenyl)-3-[oxo(2-quinolinyl)methyl]-3a,6a-dihydro-1H-pyrrolo[3,4-c]pyrazole-4,6-dione]	24.4
